Data taken from patent US20050245541A1, “Methods for treating alcoholism” (priority 2004, published 2005).
Entries after “also recorded” stand apart in the source; their conditions may differ.

How the values were obtained:
[1] = test system: rat model of alcohol self-administration; experiment: Ethanol self-administration (operant lever press) in trained rats; assay type: in vivo, rat (male Wistar)
Method: FIG. 1B is a bar graph showing the amount of ethanol (EtOH) consumed in g/kg at various doses of naltrexone. Based on the number of lever press responses following a dose of naltrexone (FIG. 1A), the corresponding amount of absolute ethanol consumed (g/kg) was calculated. To calculate the amount of absolute ethanol consumed, divide the number of lever presses by 2 to obtain the number of earned reinforcements. From this number, the total volume of the alcohol “cocktail” (10% EtOH in 0.04% saccharine solution) consumed was obtained. The grams of absolute EtOH consumed=the total “cocktail” volume consumed×10% EtOH×0.793 g EtOH/mL. The amount of ethanol (g) divided by the animal's weight (kg) gives the amount of absolute ethanol consumed in g/kg.
(§1) Male Wistar rats (starting weight of 200±30 grams; Charles River Laboratories, Mass.) were individually housed with free access to food and water. The vivarium was maintained within the temperature and relative humidity range specified within the Guide for Care and Use of Laboratory Animals (NIH Publication No. 86-23, revised 1985). These conditions were recorded once daily throughout the study. The vivarium was on a 12 hour light/dark schedule. All animal studies were reviewed and approved by the Alkermes' IACUC (protocol #04-2A).
Animals were trained daily in an operant chamber to press a lever to receive access to an ethanol cocktail as a reinforcer using a saccharin fading procedure. […] The final ethanol cocktail contained 10% ethanol in 0.04% saccharine. Each session lasted 30 minutes, during which the rat could press the lever twice to gain access to 0.1 mL of the ethanol cocktail. The operant chamber (Coulbourne Instruments, Allentown, Pa.) is a computer-controlled automated system which recorded the number of lever presses completed by a rat. At the end of the training period (6-8 weeks), rats which consistently drank a sufficient quantity of ethanol to produce a pharmacological effect (minimum intake of 0.6 g/kg/hour) were selected to participate in the drug studies. These trained rats were used repeatedly throughout these studies to control for intra-subject variability. All drugs were administered acutely with a minimum of a 2 day drug washout period.
Naltrexone was prepared daily in 0.9% saline and administered subcutaneously (SC). The dopamine D2 partial agonist aripiprazole was suspended in 3% carboxymethyl cellulose; a total volume of 1 mL/kg of this suspension was delivered orally (PO) to the rat using a gavage tube. See Table 1 for source and lot numbers of the drugs tested.
The ability of naltrexone to reduce ethanol drinking (i.e., decrease the number of lever presses) was assessed in this animal model of self administration of ethanol. Thirty minutes after the administration of naltrexone (0-6 mg/kg, SC), the animals were placed in the operant chamber and allowed to lever press for the 10% ethanol cocktail. The total number of lever presses was recorded over the 30 minute test session. The rats were repeatedly dosed with naltrexone to generate a dose-response curve for each individual animal.
The dopamine D2 partial agonist aripiprazole was coadministered with naltrexone to determine if it affected naltrexone's ability to decease ethanol drinking. The dose of naltrexone used in this series of studies was the ED50 (that is, the dose of naltrexone that produced a 50% decrease in lever responses for ethanol as determined from the dose-response study). This dose allows one to determine if the coadministered drugs impaired or enhanced naltrexone's effect on ethanol drinking. Aripiprazole was administered orally 30 minutes prior to a naltrexone injection (SC) (i.e., 60 minutes prior to the beginning of the ethanol drinking test session). The number of lever presses for the ethanol cocktail was recorded at the end of the 30 minute session.

[2] = test system: rat model of alcohol self-administration; experiment: as above; assay type: in vivo, rat (male Wistar); conditions: naltrexone 0.5 mg/kg sc, 0.1% saccharine solution substituted for ethanol cocktail
[3] = test system: audiogenic-induced convulsions in mice exhibiting symptoms of alcohol withdrawal; experiment: Audiogenic-induced convulsions in mouse model of alcohol withdrawal; assay type: in vivo, mouse (male C57BL/6); conditions: for Withdrawal Rating (mean ± sem), behavioral response scale of 1-4: mouse
Method: as §1, with “C57BL/6 mice” for “Wistar rats”, “15-18” for “200±30”, “were” for “were individually”, “housed in groups of 4 on a ventilated rack” for “housed”, “#04-8A).” for “#04-2A).”
Persistent high alcohol levels in blood and brain are required to develop withdrawal symptoms following termination of alcohol availability. […] Alcohol is provided in a nutritionally balanced liquid diet. This diet becomes the animal's sole source of food and water. While the experimenter controls the duration of the alcohol exposure, the animal determines the dose and pattern of consumption.
After a 3-5 day acclimation period, the mice were individually identified (tail mark with permanent marker) and weighed. The normal rodent chow and water was replaced with a nutritionally complete control liquid diet (Bio-Serv, Lieber-DeCarli diet) for a 5-7 day habituation period. Acquisition of EtOH drinking in mice involved a gradually escalating ethanol concentration procedure. Ethanol treated animals received an EtOH liquid diet containing 1.5% EtOH for 5-7 days. The EtOH concentration was increased every 5-7 days to a final concentration of 6.7%. The liquid diet was administered in a screw capped graduated 100 mL liquid feeding tube mounted inside the cage. The volume of remaining diet was measured and the diet changed daily. The mice were observed daily and weighed every week to assure adequate EtOH diet intake.
Development of alcohol withdrawal symptoms requires a cycle of alcohol/no alcohol. The animals were given a period of 14 days of the EtOH diet (6.7%), 2 days of control diet (balanced isocalorically with maltose dextrin replacing the EtOH) and 5-6 days of the EtOH diet.
One of the hallmark symptoms of alcohol withdrawal in mice is the occurrence of convulsions. These can occur spontaneously, from handling the animal, from a sudden loud sound (audiogenic) or from subthreshold doses of chemical convulsants. For this series of studies, the occurrence of audiogenic-induced convulsions was used as a measure of alcohol withdrawal. […]
Mice from each cage were randomly assigned to one of three groups, vehicle+saline, aripiprazole (10 mg/kg, PO)+saline, or aripiprazole (10 mg/kg, PO)+naltrexone (3 mg/kg, IP). […] Each mouse's behavior in response to the bell was observed by two investigators and the agreed upon results were recorded.

Row | Compound | Number of Lever Presses (mean ± sem) ([1]; aripiprazole 0.0 mg/kg PO (vehicle) + naltrexone 0.1 mg/kg SC, rat) | Decrease in lever presses versus baseline and vehicle control (significance) ([1]; lowest dose of naltrexone tested, 0.05 mg/kg) | Decrease in the number of lever presses compared to baseline ([1]; naltrexone alone group of the aripiprazole interaction study (naltrexone 0.1 mg/kg SC per Table 4)) [%] | Specificity of decrease in drinking: lever pressing for saccharine versus ethanol cocktail [2] | Difference between naltrexone and non-naltrexone groups on the audiogenic convulsion test ([3]; naltrexone 3 mg/kg coadministered with aripiprazole 10 mg/kg PO) | Number of Lever Presses (mean ± sem) ([1]; aripiprazole 0.1 mg/kg PO + naltrexone 0.1 mg/kg SC, rat) | Number of Lever Presses (mean ± sem) ([1]; aripiprazole 1.0 mg/kg PO + naltrexone 0.1 mg/kg SC, rat) | Number of Lever Presses (mean ± sem) ([1]; aripiprazole 10.0 mg/kg PO + naltrexone 0.1 mg/kg SC, rat) | Number of Lever Presses (mean ± sem) ([1]; aripiprazole 10.0 mg/kg PO, no naltrexone, rat) | Ethanol-motivated lever presses, combination of naltrexone and aripiprazole versus naltrexone alone ([1]; aripiprazole 0.1-10 mg/kg PO + naltrexone SC, rat) | Withdrawal Rating (mean ± sem), behavioral response scale of 1-4 ([3]; aripiprazole 10 mg/kg PO + naltrexone 3 mg/kg) | Withdrawal Rating (mean ± sem), behavioral response scale of 1-4 ([3]; aripiprazole 10 mg/kg PO + saline) | Anticonvulsant effect on the audiogenic convulsion test ([3]; aripiprazole 10 mg/kg PO with or without naltrexone, p=0.004)
1 | O=C1CC[C@@]2(O)[C@H]3Cc4ccc(O)c5c4[C@@]2(CCN3CC2CC2)[C@H]1O5 [Naltrexone] | 62 ± 13 | no significant decrease | 47.54 | to the same degree as under the non-drug baseline condition; also recorded: selective for decreasing ethanol drinking in rats (but not saccharine drinking) | no statistical differences |  |  |  |  |  |  |  | 
2 | O=C1CCc2ccc(OCCCCN3CCN(c4cccc(Cl)c4Cl)CC3)cc2N1 [Aripiprazole, 7-{4-[4-(2,3-dichlorophenyl)-1-piperazinyl]-butoxy}-3-,4-dihydro carbostyril] |  |  |  |  |  | 42 ± 11 | 45 ± 8 | 37 ± 7 | 118 ± 26 | no statistical difference | 1.0 ± 0.0 | 1.0 ± 0.0 | significant drug effect (anticonvulsant effect)
